{
  "source": "ChEMBL document CHEMBL3885861",
  "about": "“Open TG-GATES”",
  "organism": "Rattus norvegicus",
  "assay": "Open TG-GATES - Regimen: Single",
  "assay_type": "toxicity, organism-based, Sprague-Dawley",
  "set-up": "regimen Single, gender Male, age 6 weeks",
  "conditions": "in vivo, iv, 6 mg/kg, route intravenous injection, dose level Low; for APTT / Bas / Eos / Fbg / Hb / Ht / Lym / MCH / MCHC / MCV / Mono / Neu / PT / Plat / RBC / Ret / WBC: tissue Blood; for KIDNEY_L / KIDNEY_R / KIDNEY_TOTAL: tissue Kidney; for LIVER: tissue Liver; for A/G / ALP / ALT / AST / BUN / CRE / Ca / Cl / DBIL / GLC / IP / K / LDH / Na / PL / RALB / TBIL / TC / TG / TP / gamma-GTP: tissue Plasma",
  "data": [
    {"compound": "NCCBr", "note": "[BROMOETHANAMINE]", "values": [
      {"measurement": "TERMINAL_BW", "setting": "9 h", "result": 207.3, "unit": "g"},
      {"measurement": "APTT", "setting": "9 h", "result": 22.3, "unit": "s"},
      {"measurement": "Bas", "setting": "9 h", "result": 0, "unit": "%"},
      {"measurement": "Eos", "setting": "9 h", "result": 0.6, "unit": "%"},
      {"measurement": "Fbg", "setting": "9 h", "result": 297, "unit": "mg/dL"},
      {"measurement": "Hb", "setting": "9 h", "result": 13.4, "unit": "g/dL"},
      {"measurement": "Ht", "setting": "9 h", "result": 38.5, "unit": "%"},
      {"measurement": "Lym", "setting": "9 h", "result": 80.4, "unit": "%"},
      {"measurement": "MCH", "setting": "9 h", "result": 21.4, "unit": "pg"},
      {"measurement": "MCHC", "setting": "9 h", "result": 34.7, "unit": "%"},
      {"measurement": "MCV", "setting": "9 h", "result": 61.8, "unit": "fL"},
      {"measurement": "Mono", "setting": "9 h", "result": 2.2, "unit": "%"},
      {"measurement": "Neu", "setting": "9 h", "result": 16.2, "unit": "%"},
      {"measurement": "PT", "setting": "9 h", "result": 16.3, "unit": "s"},
      {"measurement": "Plat", "setting": "9 h", "result": 110.5, "unit": "x10_4/uL"},
      {"measurement": "RBC", "setting": "9 h", "result": 623.6, "unit": "x10_4/ul"},
      {"measurement": "Ret", "setting": "9 h", "result": 5.4, "unit": "%"},
      {"measurement": "WBC", "setting": "9 h", "result": 73.1, "unit": "x10_2/uL"},
      {"measurement": "KIDNEY_L", "setting": "9 h", "result": 0.9, "unit": "g"},
      {"measurement": "KIDNEY_R", "setting": "9 h", "result": 0.9, "unit": "g"},
      {"measurement": "KIDNEY_TOTAL", "setting": "9 h", "result": 1.8, "unit": "g"},
      {"measurement": "LIVER", "setting": "9 h", "result": 8, "unit": "g"},
      {"measurement": "A/G", "setting": "9 h", "result": 1.2},
      {"measurement": "ALP", "setting": "9 h", "result": 1508.8, "unit": "IU/L"},
      {"measurement": "ALT", "setting": "9 h", "result": 34, "unit": "IU/L"},
      {"measurement": "AST", "setting": "9 h", "result": 70, "unit": "IU/L"},
      {"measurement": "BUN", "setting": "9 h", "result": 12.8, "unit": "mg/dL"},
      {"measurement": "CRE", "setting": "9 h", "result": 0.2, "unit": "mg/dL"},
      {"measurement": "Ca", "setting": "9 h", "result": 10.5, "unit": "mg/dL"},
      {"measurement": "Cl", "setting": "9 h", "result": 106.2, "unit": "meq/L"},
      {"measurement": "DBIL", "setting": "9 h", "result": 0, "unit": "mg/dL"},
      {"measurement": "GLC", "setting": "9 h", "result": 174, "unit": "mg/dL"},
      {"measurement": "IP", "setting": "9 h", "result": 9.1, "unit": "mg/dL"},
      {"measurement": "K", "setting": "9 h", "result": 4.3, "unit": "meq/L"},
      {"measurement": "LDH", "setting": "9 h", "result": 129, "unit": "IU/L"},
      {"measurement": "Na", "setting": "9 h", "result": 141.2, "unit": "meq/L"},
      {"measurement": "PL", "setting": "9 h", "result": 121.8, "unit": "mg/dL"},
      {"measurement": "RALB", "setting": "9 h", "result": 2.9, "unit": "g/dL"},
      {"measurement": "TBIL", "setting": "9 h", "result": 0.018, "unit": "mg/dL"},
      {"measurement": "TC", "setting": "9 h", "result": 71.6, "unit": "mg/dL"},
      {"measurement": "TG", "setting": "9 h", "result": 48.4, "unit": "mg/dL"},
      {"measurement": "TP", "setting": "9 h", "result": 5.4, "unit": "g/dL"},
      {"measurement": "gamma-GTP", "setting": "9 h", "result": 1.4, "unit": "IU/L"},
      {"measurement": "TERMINAL_BW", "setting": "24 h", "result": 221.5, "unit": "g"},
      {"measurement": "APTT", "setting": "24 h", "result": 23.6, "unit": "s"},
      {"measurement": "Bas", "setting": "24 h", "result": 0, "unit": "%"},
      {"measurement": "Eos", "setting": "24 h", "result": 0.8, "unit": "%"},
      {"measurement": "Fbg", "setting": "24 h", "result": 322.8, "unit": "mg/dL"},
      {"measurement": "Hb", "setting": "24 h", "result": 14, "unit": "g/dL"},
      {"measurement": "Ht", "setting": "24 h", "result": 40.5, "unit": "%"},
      {"measurement": "Lym", "setting": "24 h", "result": 79.8, "unit": "%"},
      {"measurement": "MCH", "setting": "24 h", "result": 21, "unit": "pg"},
      {"measurement": "MCHC", "setting": "24 h", "result": 34.6, "unit": "%"},
      {"measurement": "MCV", "setting": "24 h", "result": 60.7, "unit": "fL"},
      {"measurement": "Mono", "setting": "24 h", "result": 2.8, "unit": "%"},
      {"measurement": "Neu", "setting": "24 h", "result": 15.6, "unit": "%"},
      {"measurement": "PT", "setting": "24 h", "result": 16.4, "unit": "s"},
      {"measurement": "Plat", "setting": "24 h", "result": 121.7, "unit": "x10_4/uL"},
      {"measurement": "RBC", "setting": "24 h", "result": 666.6, "unit": "x10_4/ul"},
      {"measurement": "Ret", "setting": "24 h", "result": 5.5, "unit": "%"},
      {"measurement": "WBC", "setting": "24 h", "result": 96.1, "unit": "x10_2/uL"},
      {"measurement": "KIDNEY_L", "setting": "24 h", "result": 1, "unit": "g"},
      {"measurement": "KIDNEY_R", "setting": "24 h", "result": 1.1, "unit": "g"},
      {"measurement": "KIDNEY_TOTAL", "setting": "24 h", "result": 2.1, "unit": "g"},
      {"measurement": "LIVER", "setting": "24 h", "result": 10.8, "unit": "g"},
      {"measurement": "A/G", "setting": "24 h", "result": 1.1},
      {"measurement": "ALP", "setting": "24 h", "result": 1490, "unit": "IU/L"},
      {"measurement": "ALT", "setting": "24 h", "result": 44.6, "unit": "IU/L"},
      {"measurement": "AST", "setting": "24 h", "result": 67.6, "unit": "IU/L"},
      {"measurement": "BUN", "setting": "24 h", "result": 18, "unit": "mg/dL"},
      {"measurement": "CRE", "setting": "24 h", "result": 0.2, "unit": "mg/dL"},
      {"measurement": "Ca", "setting": "24 h", "result": 10.7, "unit": "mg/dL"},
      {"measurement": "Cl", "setting": "24 h", "result": 105.8, "unit": "meq/L"},
      {"measurement": "DBIL", "setting": "24 h", "result": 0, "unit": "mg/dL"},
      {"measurement": "GLC", "setting": "24 h", "result": 183.6, "unit": "mg/dL"},
      {"measurement": "IP", "setting": "24 h", "result": 6.8, "unit": "mg/dL"},
      {"measurement": "K", "setting": "24 h", "result": 4.6, "unit": "meq/L"},
      {"measurement": "LDH", "setting": "24 h", "result": 187.8, "unit": "IU/L"},
      {"measurement": "Na", "setting": "24 h", "result": 141.6, "unit": "meq/L"},
      {"measurement": "PL", "setting": "24 h", "result": 162.8, "unit": "mg/dL"},
      {"measurement": "RALB", "setting": "24 h", "result": 2.9, "unit": "g/dL"},
      {"measurement": "TBIL", "setting": "24 h", "result": 0.01, "unit": "mg/dL"},
      {"measurement": "TC", "setting": "24 h", "result": 90.8, "unit": "mg/dL"},
      {"measurement": "TG", "setting": "24 h", "result": 99.4, "unit": "mg/dL"},
      {"measurement": "TP", "setting": "24 h", "result": 5.6, "unit": "g/dL"},
      {"measurement": "gamma-GTP", "setting": "24 h", "result": 1.8, "unit": "IU/L"}
    ]}
  ]
}
